These results are taken from PMC2045123 (Analytical and Bioanalytical Chemistry, 2007).

The term EC50 denotes the concentration giving half of the maximal effect. A higher EC50 goes with a need for much substance.

One test relates to AR. To be noted: cited from earlier work.
The target in test [1] is T1, human androgen receptor (Homo sapiens, UniProt P10275).
T1 sequence (P10275 1-920): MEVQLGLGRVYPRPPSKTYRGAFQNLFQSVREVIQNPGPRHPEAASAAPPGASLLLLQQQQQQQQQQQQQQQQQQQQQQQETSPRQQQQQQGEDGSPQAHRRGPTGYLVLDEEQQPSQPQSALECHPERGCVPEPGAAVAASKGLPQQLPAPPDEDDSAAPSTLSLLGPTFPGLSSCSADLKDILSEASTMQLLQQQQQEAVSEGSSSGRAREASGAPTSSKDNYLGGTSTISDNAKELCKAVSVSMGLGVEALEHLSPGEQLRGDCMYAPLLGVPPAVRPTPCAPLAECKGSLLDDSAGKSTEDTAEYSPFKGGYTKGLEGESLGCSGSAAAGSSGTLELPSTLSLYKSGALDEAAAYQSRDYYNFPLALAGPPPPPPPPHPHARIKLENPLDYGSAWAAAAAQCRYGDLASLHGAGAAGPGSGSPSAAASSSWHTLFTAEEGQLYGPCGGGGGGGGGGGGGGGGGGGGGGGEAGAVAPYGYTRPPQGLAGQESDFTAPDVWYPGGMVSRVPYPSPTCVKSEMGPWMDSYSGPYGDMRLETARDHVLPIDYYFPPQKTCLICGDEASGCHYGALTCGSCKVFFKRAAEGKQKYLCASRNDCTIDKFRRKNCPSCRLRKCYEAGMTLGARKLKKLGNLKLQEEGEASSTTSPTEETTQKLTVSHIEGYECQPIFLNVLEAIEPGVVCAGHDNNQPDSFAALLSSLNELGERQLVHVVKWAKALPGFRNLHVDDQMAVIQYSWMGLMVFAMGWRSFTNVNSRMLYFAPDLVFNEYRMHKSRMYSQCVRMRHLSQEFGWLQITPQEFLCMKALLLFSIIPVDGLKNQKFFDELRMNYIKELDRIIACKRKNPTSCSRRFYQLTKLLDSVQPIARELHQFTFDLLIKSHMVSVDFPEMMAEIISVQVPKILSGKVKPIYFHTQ
As to the kind of experiment: new yeast androgen bioassay expressing yEGFP in response to androgens. The class given is cell-based.

The target of test [2] is T1, human androgen receptor. The class given is cell-based. The note with it: coexposure with 50 nM 5α-dihydrotestosterone; potency compared with flutamide.
For the next test, the target named is T2, hAR (Homo sapiens, UniProt P10275).
T2 sequence (P10275 1-920): T1 sequence (P10275 1-920)
Briefly: lacZ-based. The class given is cell-based.

Where [3] appears, read: β-galactosidase bioassay, relative to 17β-testosterone, NR no response.

“Also recorded” adds a separate entry of the source. Read-outs that look alike come from different tables or passages of the source.

Consider `CC(=O)[C@H]1CC[C@H]2[C@@H]3CCC4=CC(=O)CC[C@]4(C)[C@H]3CC[C@]12C` [Progesterone], for which the “androgenic activity in MCRG systems (positive systems out of all)” value (from here on “androgenic activity in MCRG systems”) in the test on AR was “seven out of nine”. In the case of `C[C@]12CC[C@@H]3c4ccc(O)cc4CC[C@H]3[C@@H]1CC[C@@H]2O` [17β-Estradiol], the “androgenic activity in MCRG systems” value in the test on AR was “ten out of 11”. In the case of `Brc1ccc(Oc2cc(Br)cc(Br)c2)cc1` [BDE-39], the “agonistic response (in words)” value on human androgen receptor [1] is reported as “None of these four compounds were able to show an agonistic response”. Besides, the “antiandrogenic activity (in words)” value at human androgen receptor [2] is reported as “clearly less antiandrogenic”. On to `C[C@]12CC[C@@H]3c4ccc(O)cc4CC[C@H]3[C@@H]1CCC2=O` [Estrone], for which the “agonistic response (in words)” value at human androgen receptor [1] was “no agonistic response; also recorded: negative result”. On to `C[C@]12C=CC3=C4CCC(=O)C=C4CC[C@H]3[C@@H]1CC[C@@H]2O` [17β-Trenbolone], for which the EC50 at hAR came to 13 nM. This molecule also yielded an RAP at hAR (setting [3]) of 0.9. On hAR (setting [3]), `CC[C@]1(O)CC[C@H]2[C@@H]3CCC4=CC(=O)CCC4=C3C=C[C@@]21CC` [Tetrahydrogestrinone] displayed an RAP of 1.0. Take `C[C@@H]1C[C@H]2[C@@H]3CCC4=CC(=O)C=C[C@]4(C)[C@@]3(F)[C@@H](O)C[C@]2(C)[C@@]1(O)C(=O)CO` [Dexamethasone]: the “androgenic activity in MCRG systems” value in the test on AR is listed as “three out of four”. In the case of `C[C@]1(O)CC[C@H]2[C@@H]3CCC4=CC(=O)CCC4=C3C=C[C@@]21C` [Methyltrienolone], the RAP on hAR turned out to be 3.1. For `C[C@]12CC[C@H]3[C@@H](CCC4=CC(=O)C=C[C@@]43C)[C@@H]1CC[C@@H]2O` [17β-Boldenone], on hAR (setting [3]), the RAP was 0.2.
